# Source: patent publication US20040044006A1, “Methods of use of quinolone compounds against pneumococcal and haemophilus bacteria” (priority 1999, published 2004)
# Like-named read-outs stand apart in the source and are kept apart here.
# Legend:
# [1] = system: penicillin susceptible and resistant pneumococcal strains (2 quinolone resistant); assay: Time-kill testing of 12 pneumococcal strains; assay type: cell-based, Streptococcus pneumoniae; conditions: 12 penicillin susceptible and resistant pneumococcal strains; 24 h; bactericidal = ≧3 log10 cfu/ml (99.9%) reduction
# Method: For time-kill studies, glass tubes containing 5 ml cation-adjusted Mueller-Hinton broth (Difco)+5% lysed horse blood with doubling antibiotic concentrations were inoculated with 5×10^5 to 5×10^6 cfu/ml and incubated at 35° C. in a shaking water bath. […] Growth controls with inoculum but no antibiotic were included with each experiment (Pankuch, et al., Antimicrob. Agents Chemother. 38:2065-2072, 1994; Pankuch, et al., Antimicrob. Agents Chemother. 40:1653-1656, 1996).
# Lysed horse blood was prepared as described previously. The bacterial inoculum was prepared by diluting a 16 h broth (medium as above) culture in the same medium. Dilutions required to obtain the correct inoculum (5×10^5-5×10^6 cfu/ml) were determined by prior viability studies using each strain (Pankuch, et al., Antimicrob. Agents Chemother. 38:2065-2072, 1994; Pankuch, et al., Antimicrob. Agents Chemother. 40: 1653-1656, 1996).
# To inoculate each tube of serially diluted antibiotic, 50 μl of diluted inoculum was delivered by pipette beneath the surface of the broth. Tubes were then vortexed and plated for viability counts within 10 min (approximately 0.2 h). The original inoculum was determined by using the untreated growth control. Only tubes containing an initial inoculum within the range of 5×10^5 to 5×10^6 cfu/ml were acceptable (Pankuch, et al., Antimicrob. Agents Chemother. 38:2065-2072, 1994; Pankuch, et al., Antimicrob. Agents Chemother. 40:1653-1656, 1996).
# Viability counts of antibiotic-containing suspensions were performed by plating ten-fold dilutions of 0.1 ml aliquots from each tube in sterile Mueller-t-Hinton broth onto trypticase soy agar 5% sheep blood agar plates (BBL). Recovery plates were incubated for up to 72 h. Colony Counts were performed on plates yielding 30-300 colonies. The lower limit of sensitivity of colony counts was 300 cfu/ml (Pankuch, et al., Antimicrob. Agents Chemother. 38:2065-2072, 1994; Pankuch, et al., Antimicrob. Agents Chemother. 40:1653-1656, 1996).
# Time-kill assays were analysed by determining the number of strains which yielded a log10 cfu/ml of −1, −2 and −3 at 0, 3, 6, 12 and 24 h, compared to counts at time 0 h. Antimicrobials were considered bactericidal at the lowest concentration that reduced the original inoculum by ≧3 log10 cfu/ml (99.9%) at each of the time periods, and bacteriostatic if the inoculum was reduced by 0-3 log10 cfu/ml. […] The problem of bacterial carryover was addressed as described previously. For macrolide time-kill testing, only strains with MICs≦4.0 μg/ml were tested (Pankuch, et al., Antimicrob. Agents Chemother. 38:2065-9072, 1994; Pankuch, et al., Antimicrob. Agents Chemother. 40:1653-1656, 1996).
# [2] = system: pneumococci with ciprofloxacin MICs ≧8 μg/ml; assay: Quinolone agar dilution MICs of 28 ciprofloxacin resistant pneumococcal strains, correlated with QRDR mutations; assay type: cell-based, Streptococcus pneumoniae
# Method: Additionally these strains were tested for mutations in parC, gyrA, parE, and gyrB (Pan, et al. Antimicrob. Agents Chemother. 40:2321-2326, 1996) and for efflux mechanism (Brenwald, et ail., Antimicrob. Agents Chemother. 42:2032-2035, 1998).
# Gemifloxacin susceptibility powder was obtained from SmithKline Beecham Laboratories, Harlow, UK. Agar dilution methodology was performed on 28 strains as described previously (M. R. Jacobs, Clin. Infect. Dis. 15: 119-127, […] and M. R. Jacobs, Rev. Med. Microbiol. 6:77-93, 1995), using Mueller-Hinton altar (BBL Microbiology Systems, Cockeysville, Md.) supplemented with 5% sheep blood. Standard quality control strains, including Streptococcus pneumoniae ATCC 49619, were included in each run of agar dilution MICs.
# [3] = agar dilution, 28 strains with ciprofloxacin MICs ≧8.0 μg/ml
structure (smiles),measurement,setting,value
"C[C@@H]1CN(c2c(F)c(N)c3c(=O)c(C(=O)O)cn(C4CC4)c3c2F)C[C@H](C)N1 [Sparfloxacin, sparfloxacin]",concentration at which bactericidal after 24 h,[1],2 ×MIC
same,MIC50,[2]; Streptococcus pneumoniae,8 µg/mL
same,MIC90,[2]; Streptococcus pneumoniae,16 µg/mL
same,MIC,"[2]; Streptococcus pneumoniae, read-out: MICs in strains with three or four QRDR mutations, 20 strains, bound holds in all 20 (ciprofloxacin, levofloxacin, sparfloxacin), 19 (grepafloxacin), 10 (trovafloxacin), 18 (gemifloxacin)",> 1 µg/mL
same,MIC,"[2]; Streptococcus pneumoniae, read-out: MICs in strains with three or four QRDR mutations, 21 strains, bound holds in all 21 (ciprofloxacin, levofloxacin, sparfloxacin), 20 (grepafloxacin), 11 (trovafloxacin), 19 (gemifloxacin)",≥ 1 µg/mL
same,MIC,"[2]; Streptococcus pneumoniae, strain 1, ParC S79-F, ParE I460-V, GyrA S81-F, GyrB None",4 µg/mL
same,MIC,"[2]; Streptococcus pneumoniae, strain 1, ParC S79-F, ParE I460-V, GyrA S83-F, GyrB None",4 µg/mL
same,MIC,"[2]; Streptococcus pneumoniae, strain 3, ParC D83-N, ParE I460-V, GyrA S81-F, GyrB None",1 µg/mL
same,MIC,"[2]; Streptococcus pneumoniae, strain 3, ParC D83-N, ParE I460-V, GyrA S83-F, GyrB None",1 µg/mL
same,MIC,"[2]; Streptococcus pneumoniae, strain 4, ParC S79-F, ParE I460-V, GyrA S81-F, GyrB None",1 µg/mL
same,MIC,"[2]; Streptococcus pneumoniae, strain 4, ParC S79-F, ParE I460-V, GyrA S83-F, GyrB None",1 µg/mL
same,MIC,"[2]; Streptococcus pneumoniae, strain 5, ParC R95-C, ParE D435-N, GyrA S81-F, GyrB None",1 µg/mL
same,MIC,"[2]; Streptococcus pneumoniae, strain 5, ParC R95-C, ParE D435-N, GyrA S83-F, GyrB None",1 µg/mL
same,MIC,"[2]; Streptococcus pneumoniae, strain 6, ParC S79-Y, ParE I460-V, GyrA E85-K, GyrB None",8 µg/mL
same,MIC,"[2]; Streptococcus pneumoniae, strain 6, ParC S79-Y, ParE I460-V, GyrA E87-K, GyrB None",8 µg/mL
same,MIC,"[2]; Streptococcus pneumoniae, strain 7, ParC None, ParE I460-V, GyrA None, GyrB None",1 µg/mL
same,MIC,"[2]; Streptococcus pneumoniae, strain 8, ParC S79-Y, ParE None, GyrA None, GyrB None",1 µg/mL
same,MIC,"[2]; Streptococcus pneumoniae, strain 9, ParC S79-Y, ParE None, GyrA None, GyrB None",2 µg/mL
same,MIC,"[2]; Streptococcus pneumoniae, strain 10, ParC S79-F, ParE I460-V, GyrA S81-C, GyrB None",4 µg/mL
same,MIC,"[2]; Streptococcus pneumoniae, strain 10, ParC S79-F, ParE I460-V, GyrA S83-C, GyrB None",4 µg/mL
same,MIC,"[2]; Streptococcus pneumoniae, strain 11, ParC S79-F, ParE I460-V, GyrA S81-F, GyrB None",4 µg/mL
same,MIC,"[2]; Streptococcus pneumoniae, strain 11, ParC S79-F, ParE I460-V, GyrA S83-F, GyrB None",4 µg/mL
same,MIC,"[2]; Streptococcus pneumoniae, strain 12, ParC S79-F, ParE I460-V, GyrA None, GyrB D435-N",1 µg/mL
same,MIC,"[2]; Streptococcus pneumoniae, strain 13, ParC S79-F, ParE I460-V, GyrA None, GyrB E474-K",8 µg/mL
same,MIC,"[2]; Streptococcus pneumoniae, strain 14, ParC S79-F, ParE I460-V, GyrA S81-F, GyrB None",8 µg/mL
same,MIC,"[2]; Streptococcus pneumoniae, strain 14, ParC S79-F, ParE I460-V, GyrA S83-F, GyrB None",8 µg/mL
same,MIC,"[2]; Streptococcus pneumoniae, strain 15, ParC 79-F, ParE I460-V, GyrA S83-F, GyrB None",8 µg/mL
same,MIC,"[2]; Streptococcus pneumoniae, strain 15, ParC S79-F, ParE I460-V, GyrA S81-F, GyrB None",8 µg/mL
same,MIC,"[2]; Streptococcus pneumoniae, strain 16, ParC S79-F, ParE I460-V, GyrA S81-F, GyrB None",8 µg/mL
same,MIC,"[2]; Streptococcus pneumoniae, strain 16, ParC S79-F, ParE I460-V, GyrA S83-F, GyrB None",8 µg/mL
same,MIC,"[2]; Streptococcus pneumoniae, strain 17, ParC D83-N, ParE None, GyrA S81-F, GyrB None",8 µg/mL
same,MIC,"[2]; Streptococcus pneumoniae, strain 17, ParC D83-N, ParE None, GyrA S83-F, GyrB None",8 µg/mL
same,MIC,"[2]; Streptococcus pneumoniae, strain 18, ParC S79-F, ParE I460-V, GyrA S81-F, GyrB None",8 µg/mL
same,MIC,"[2]; Streptococcus pneumoniae, strain 18, ParC S79-F, ParE I460-V, GyrA S83-F, GyrB None",8 µg/mL
same,MIC,"[2]; Streptococcus pneumoniae, strain 19, ParC S79-F, ParE I460-V, GyrA S81-F, GyrB None",8 µg/mL
same,MIC,"[2]; Streptococcus pneumoniae, strain 19, ParC S79-F, ParE I460-V, GyrA S83-F, GyrB None",8 µg/mL
same,MIC,"[2]; Streptococcus pneumoniae, strain 20, ParC S79-F, ParE I460-V, GyrA E85-K, GyrB None",8 µg/mL
same,MIC,"[2]; Streptococcus pneumoniae, strain 20, ParC S79-F, ParE I460-V, GyrA E87-K, GyrB None",8 µg/mL
same,MIC,"[2]; Streptococcus pneumoniae, strain 21, ParC S79-F, ParE I460-V, GyrA S81-F, GyrB None",8 µg/mL
same,MIC,"[2]; Streptococcus pneumoniae, strain 21, ParC S79-F, ParE I460-V, GyrA S83-F, GyrB None",8 µg/mL
same,MIC,"[2]; Streptococcus pneumoniae, strain 22, ParC S79-F, ParE I460-V, GyrA S81-Y, GyrB None",8 µg/mL
same,MIC,"[2]; Streptococcus pneumoniae, strain 22, ParC S79-F, ParE I460-V, GyrA S83-Y, GyrB None",8 µg/mL
same,MIC,"[2]; Streptococcus pneumoniae, strain 23, ParC S79-Y, ParE None, GyrA S81-A, GyrB None",8 µg/mL
same,MIC,"[2]; Streptococcus pneumoniae, strain 23, ParC S79-Y, ParE None, GyrA S83-A, GyrB None",8 µg/mL
same,MIC,"[2]; Streptococcus pneumoniae, strain 26, ParC S79-F, ParE None, GyrA S81-Y, GyrB None",> 32 µg/mL
same,MIC,"[2]; Streptococcus pneumoniae, strain 26, ParC S79-F, ParE None, GyrA S83-Y, GyrB None",> 32 µg/mL
same,MIC,"[2]; Streptococcus pneumoniae, strain 27, ParC S79-Y, ParE I460-V, GyrA S81-F, GyrB None",> 32 µg/mL
same,MIC,"[2]; Streptococcus pneumoniae, strain 27, ParC S79-Y, ParE I460-V, GyrA S83-F, GyrB None",> 32 µg/mL
same,MIC,"[2]; Streptococcus pneumoniae, strain 28, ParC D83-G N91-D, ParE None, GyrA S81-F S114-G, GyrB None",> 32 µg/mL
same,MIC,"[2]; Streptococcus pneumoniae, strain 28, ParC cell empty, ParE None, GyrA S83-F and S116-G, GyrB None",> 32 µg/mL
same,MIC50,[2]; [3],8.0 µg/mL
same,MIC90,[2]; [3],16.0 µg/mL
